Reference: patent publication US20100204460A1, “NATURAL BRASSINOSTEROIDS FOR USE FOR TREATING HYPERPROLIFERATION, TREATING PROLIFERATIVE DISEASES AND REDUCING ADVERSE EFFECTS OF STEROID DYSFUNCTION IN MAMMALS, PHARMACEUTICAL COMPOSITION AND ITS USE” (priority 2007, published 2010)

Key:
Type in all cases: cell-based
DU-145 cells = experiment: TUNEL detection of apoptosis, DU-145; conditions: IC50 concentration, control 0.0 ± 0.0
Method: TdT-Mediated dUTP nick end labeling (TUNEL) detection of apoptosis index. For detection of apoptotic cells, the TUNEL assay was used. […] After period of treatment, the cells were washed with PBS and fixed on the slides with cold acetone-methanol (1:1, v/v) for 10 min. Apoptosis-induced nuclear DNA fragmentation was detected by terminal deoxynucleotidyl transferase-mediated UTP nick end labeling (TUNEL) technique according to the producer protocol (In Situ Cell Death Detection Kit; Roche Diagnostics, Mannheim, Germany). The cells were then washed three times in PBS and stained with 4′-6-diamidino-2-phenylindole (DAPI; 50 μg/ml; Sigma, St. Louis, Mo., USA) for 10 min in the dark. The coverslips with cells were washed in deionized water and mounted on glass slides, using the hydrophilic medium Mowiol (Calbiochem, Fremont, Calif., USA) in glycerol-PBS (1:3, v/v) for fluorescence. Cells were visualized using fluorescence microscopy and compared with control cells. TUNEL staining achieved to confirm apoptosis in all cell lines.

MCF-7 cells = experiment: BrdU incorporation assay, MCF-7
Method: To analyze if the inhibition in cell viability was due to decreased cell proliferation, we measured DNA synthesis in the presence of BRs. The effect of brassinosteroids 9 or 6 on cell proliferation and DNA replication of the cancer cells was measured by BrdU incorporation assay. This immunostaining was based on nuclear incorporation of bromodeoxyuridine (BrdU) into DNA in place of thymidine during the S-phase of cell cycle detected by anti-specific-BrdU antibody following membrane permeabilization as described previously (Gratzner, Science. 1982, 218, 474-475). […] The BrdU reagent (0.1 mM; Sigma, MO, USA) was added in culture medium with cells for 4 h in a CO2 incubator at 37° C. After incubation the cells were washed three times with PBS and fixed with cold acetone-methanol (1:1, v/v) for 10 min. The cells were denaturated by HCl (1:5; Lachema, Czech Republic) and incubated with anti-specific-BrdU antibody (diluted 1:100 in PBS; clone Bu20a, DakoCytomation, Denmark) for 60 min in the dark. The cells were then washed three times in PBS (10 mM, pH 7.4) and incubated with goat anti-mouse fluorescein isothiocyanate (FITC)-labeled secondary antibody (Sigma, MO, USA) for 60 min in the dark. The cells were then washed three times in PBS and incubated with DAPI (50 μg/mL; Sigma, MO, USA) for 10 min in the dark. The coverslips with cells were washed in deionized water and mounted on glass slides, using the hydrophilic medium Mowiol (Calbiochem, Calif., USA) in glycerol-PBS (1:3, v/v) for fluorescence. Cells were visualized using microscopy and those incorporating BrdU (S phase cells) were counted in at least 25 fields and compared with the total number of all cells.

[1] = tested on: MCF-7, LNCaP and DU-145 cancer cell lines; experiment: MTT cytotoxicity test, summary over cell lines; conditions: over cell lines except MDA-MB-468; 24 h; read-out: IC50 value around which the cell lines move (MTT)
Method: Stock solutions ([…]) were prepared by dissolving relevant quantity of substance in DMSO cultivation media (DMEM, RPMI 1640, F-12 medium), fetal bovine serum (FBS), L-glutamine, penicillin, and streptomycin were purchased from Sigma (MO, USA). 3-(4,5-Dimethylthiazol-2-yl)-2,5-diphenyltetrazolium bromide (MTT) was from Serva Electrophoresis (Heidelberg, Germany). Monoclonal mouse anti-bromodeoxyuridine (BrdU) intibody was obtained from DakoCytomation (Glostrup, Denmark). Calcein AM was obtained from PAA Laboratories GmbH (Pasching, Austria). […]
Cell viability in this case was assessed by 3-(4,5-dimethylthiozol-2-yl)-2,5-diphenyltetrazolium bromide (MTT) to determine IC50 concentrations of studied agents as described previously. […] The absorbance was read using an ELISA reader Labsystem Multiscan RC at 570 nm. […]

[2] = treated at IC50 for 6 h, control 50 ± 3.6
[3] = treated at IC50 for 12 h, control 53 ± 3.5
[4] = treated at IC50 for 24 h, control 69 ± 4.5

| SMILES | percentage of TUNEL positive cells (DU-145 cells; 6 h) [%] | percentage of TUNEL positive cells (DU-145 cells; 12 h) [%] | percentage of TUNEL positive cells (DU-145 cells; 24 h) [%] | percentage of proliferating BrdU positive cells (MCF-7 cells; [2]) [%] | percentage of proliferating BrdU positive cells (MCF-7 cells; [3]) [%] | percentage of proliferating BrdU positive cells (MCF-7 cells; [4]) [%] | IC50 [1] [µM] |
| --- | --- | --- | --- | --- | --- | --- | --- |
| CC[C@@H](C(C)C)[C@@H](O)[C@H](O)[C@@H](C)[C@H]1CC[C@H]2[C@@H]3CC(=O)[C@H]4C[C@H](O)[C@H](O)C[C@]4(C)[C@H]3CC[C@]12C [Brassinosteroid 9, 28-Homocastasterone] | 6.0 ± 2.0 | 7.5 ± 4.0 | 8.0 ± 4.0 | 46 ± 2.5 | 31 ± 3.8 | 29±4.0 | ~43.3 |
| CC(C)[C@@H](C)[C@@H](O)[C@H](O)[C@@H](C)[C@H]1CC[C@H]2[C@@H]3COC(=O)[C@H]4C[C@H](O)[C@H](O)C[C@]4(C)[C@H]3CC[C@]12C [Brassinosteroid 6, 24-Epibrassinolide] | 4.7 ± 2.5 | 5.6 ± 2.0 | 5.1 ± 5.6 | 42 ± 3.2 | 40 ± 7.1 | 36 ± 5.5 | ~61.7 |
